Test results taken from US9434684B2, “Oxime-substituted amide compound and pest control agent” (Nissan Chemical Industries, Ltd., priority 2012, dated 2016).

What was measured:
Botrytis cinerea [1] = assay: Preventive effect against cucumber gray mold (mycelium inoculation); assay type: in vivo; settings: 48 h, test solution A 500 ppm, 2 days
Procedure: (§1) Compounds of the present invention were dissolved in a solvent for emulsion (a mixture of Sorpol (registered trademark) 3005XL (manufactured by Toho Chemical Industry Co., Ltd.): N-methylpyrrolidone:Solvesso (registered trademark) 200 (manufactured by ExxonMobil Chemical) in a ratio of 1:5:2) to prepare 20% emulsifiable concentrates. Then, distilled water was added to dilute the emulsifiable concentrates to the predetermined concentration (500 ppm), and the obtained solutions were used in the following Test Examples 1 to 7. Cucumber (cultivar: Sagami Hanjiro) was planted in 90 cm^3 plastic pots, and in the seed leaf stage, 5 ml per pot of test solutions A of the compounds of the present invention were applied. On the next day, the pots were put in a plastic container, and agar blocks (diameter: 5 mm) containing Botrytis cinerea preliminarily cultivated in a PDA medium were inoculated to the seed leaves of the cucumber treated with the solutions. After the inoculation, the plastic container was covered with a plastic sheet and humidified, and placed at 20° C. for 2 days, whereupon the proportion of the formed lesion in the inoculated leaves was measured to calculate the control value in accordance with the same formula as in Test Example 1. Here, the test was carried out in duplicate.

Sclerotinia sclerotiorum = assay: Preventive effect against cucumber stem rot; assay type: in vivo; settings: 48 h, test solution A 500 ppm, 2 days
Procedure: as §1, with “After drying in air,” for “On the next day,”, “Sclerotinia sclerotiorum” for “Botrytis cinerea”

[2] = system: Phaeosphaeria nodorum (synonym: Septoria nodorum); assay: Preventive effect against wheat glume blotch; assay type: in vivo; settings: Parastagonospora nodorum, 192 h, test solution A 500 ppm, 2 + 6 days
Procedure: (§2) Compounds of the present invention were dissolved in a solvent for emulsion (a mixture of Sorpol (registered trademark) 3005XL (manufactured by Toho Chemical Industry Co., Ltd.): N-methylpyrrolidone:Solvesso (registered trademark) 200 (manufactured by ExxonMobil Chemical) in a ratio of 1:5:2) to prepare 20% emulsifiable concentrates. Then, distilled water was added to dilute the emulsifiable concentrates to the predetermined concentration (500 ppm), and the obtained solutions were used in the following Test Examples 1 to 7. To wheat (cultivar: Haruyutaka) in 1.3-leaf stage planted in 90 cm^3 plastic pots, 5 ml per pot of test solutions A of the compounds of the present invention were applied. On the next day, a suspension of conidium of Phaeosphaeria nodorum synonym: Septoria nodorum) was spray-inoculated to the wheat, and the pots were placed in an inoculation chamber at 20° C. under a humidity of 100% for 2 days. Then, the pots were placed in an air-conditioned greenhouse (20° C.) for 6 days. The proportion of the formed lesion in the inoculated leaves was measured to calculate the control value in accordance with the same formula as in Test Example 1. Here, the test was carried out in duplicate.

Botrytis cinerea [3] = assay: Preventive effect against cucumber gray mold (spore inoculation); assay type: in vivo; settings: 72 h, cucumber leaves, test solution A 500 ppm, 3 days
Procedure: Compounds of the present invention were dissolved in a solvent for emulsion (a mixture of Sorpol (registered trademark) 3005XL (manufactured by Toho Chemical Industry Co., Ltd.): N-methylpyrrolidone:Solvesso (registered trademark) 200 (manufactured by ExxonMobil Chemical) in a ratio of 1:5:2) to prepare 20% emulsifiable concentrates. Then, distilled water was added to dilute the emulsifiable concentrates to the predetermined concentration (500 ppm), and the obtained solutions were used in the following Test Examples 1 to 7. Cucumber (cultivar: Sagami Hanjiro) was planted in 90 cm^3 plastic pots, and in the seed leaf stage, 5 ml per pot of test solutions A of the compounds of the present invention were applied. After drying in air, the treated leaves were cut and put in plastic containers. 30 μl of a mixture of a suspension of conidium of Botrytis cinerea and a dissolved PDA medium in a ratio of 1:1 was dropped on each treated leaf and inoculated. After the inoculation, the plastic containers were placed at 20° C. in humid conditions for 3 days, and the proportion of the formed lesion in the inoculated leaves was measured to calculate the control value in accordance with the same formula as in Test Example 1. Here, the test was carried out in duplicate.

Puccinia recondita = assay: Preventive effect against wheat brown leaf rust; assay type: in vivo; settings: 216 h, test solution A 500 ppm, 1 + 8 days
Procedure: as §2, with “Norin-61-go)” for “Haruyutaka)”, “spore” for “conidium”, “Puccinia recondita” for “Phaeosphaeria nodorum synonym: Septoria nodorum)”, “1 day.” for “2 days.”, “8” for “6”

Meloidogyne incognita = assay: Preventive effect on Meloidogyne incognita (garden balsam seedlings, root knot); assay type: in vivo; settings: 504 h, test solution B 100 ppm, 1 ml per seedling, 3 weeks, read-out: efficacy (damage degree, root knot, relative to non-treated plot)
Procedure: Compounds of the present invention were dissolved in dimethylsulfoxide to prepare 1% solutions. Then, distilled water was added to dilute the solutions to the predetermined concentration (100 ppm), and the obtained solutions were used in the following Test Examples 8 to 12. 1 ml per seedling of test solutions B of the compounds of the present invention were treated to the bases of garden balsam seedlings (about 2 weeks after budding) planted in a cell tray of which each cell was filled with 10 g of soil. 1 Hour after the application, 1 ml per cell of water containing Meloidogyne incognita 2 L larvae (100 2 L larvae/1 ml) was applied to the bases. The tray was placed in a greenhouse for 3 weeks, and the root knot level formed on the root was determined in accordance with the following damage index and the damage degree to calculate the efficacy (%) relative to the non-treated plot in accordance with the following formula. <Damage Index> 0: No knot observed. 1: Knot observed on a part of the root system. 2: Knot observed on the entire root system. 3: Large knot observed. 4: Large knot observed on the entire root system. [Damage degree]=[Σ(damage index×number of seedlings at each index)/(4×number of seedlings investigated)]×100 Efficacy(%)=[1−(damage degree in treated plot/damage degree in non-treated plot)]×100

Botrytis cinerea [4] = assay: Preventive effect against cucumber gray mold (spore inoculation); assay type: in vivo; settings: 72 h, cucumber leaves, 100 ppm solution (*), 3 days
Botrytis cinerea [5] = assay: Preventive effect against cucumber gray mold (mycelium inoculation); assay type: in vivo; settings: 48 h, 100 ppm solution (*), 2 days

## CON=C(CNC(=S)c1ccccc1C(F)(F)F)c1ncc(Br)cc1Cl [Compound No. 5-001, N-[2-(5-bromo-3-chloropyridin-2-yl)-2-(methoxyimino)ethyl]-2-(trifluoromethyl)benzthioamide]
Botrytis cinerea [1]
  pest or weed control at 500 µg/mL: ≥ 70%
Sclerotinia sclerotiorum
  pest or weed control at 500 µg/mL: ≥ 70%
[2]
  pest or weed control at 500 µg/mL: ≥ 70%
Botrytis cinerea [3]
  pest or weed control at 500 µg/mL: ≥ 70%
Puccinia recondita
  pest or weed control at 500 µg/mL: ≥ 70%

## CCCO/N=C(/CNC(=O)c1ccccc1C(F)(F)F)c1ncc(Cl)cc1Cl [Compound No. 2-126, (Z)—N-[2-(3,5-dichloropyridin-2-yl)-2-(propoxyimino)ethyl]-2-(trifluoromethyl)benzamide]
Meloidogyne incognita
  pest or weed control at 100 µg/mL: ≥ 50%
other
  melting point: 80 to 83 °C
Puccinia recondita
  pest or weed control at 500 µg/mL: ≥ 70%

## CC(C)(C)ON=C(CNC(=O)c1nccnc1C(F)(F)F)c1ncc(Cl)cc1Cl (single isomer, unassigned) [9-006, N-[2-(3,5-dichloropyridin-2-yl)-2-(tert-butoxyimino)ethyl]-3-(trifluoromethyl)pyrazine-2-carboxamide]
Botrytis cinerea [1]
  pest or weed control at 500 µg/mL: ≥ 70%
Sclerotinia sclerotiorum
  pest or weed control at 500 µg/mL: ≥ 70%

## CO/N=C(\c1ncc(Cl)cc1Cl)C(C)NC(=O)c1ccccc1C(F)(F)F (centres unmarked) [Compound No. 2-117, (Z)—N-[2-(3,5-dichloropyridin-2-yl)-2-methoxyimino-1-methylethyl]-2-(trifluoromethyl)benzamide]
Meloidogyne incognita
  pest or weed control at 100 µg/mL: ≥ 50%
Botrytis cinerea [1]
  pest or weed control at 500 µg/mL: ≥ 70%
other
  melting point: 104 to 105 °C
Botrytis cinerea [3]
  pest or weed control at 500 µg/mL: ≥ 70%
Puccinia recondita
  pest or weed control at 500 µg/mL: ≥ 70%

## CC(C)ON=C(CNC(=O)c1ccccc1C(F)(F)F)c1ncc(Cl)nc1Cl [24-001]
Botrytis cinerea [1]
  pest or weed control at 500 µg/mL: ≥ 70%
Sclerotinia sclerotiorum
  pest or weed control at 500 µg/mL: ≥ 70%
Botrytis cinerea [3]
  pest or weed control at 500 µg/mL: ≥ 70%

## CON=C(CN(C(C)=O)C(=O)c1ccccc1C(F)(F)F)c1ncc(Cl)cc1Cl [4-013]
Botrytis cinerea [1]
  pest or weed control at 500 µg/mL: ≥ 70%
Sclerotinia sclerotiorum
  pest or weed control at 500 µg/mL: ≥ 70%
Botrytis cinerea [3]
  pest or weed control at 500 µg/mL: ≥ 70%

## CON=C(CN(C(=O)c1c(C(F)(F)F)nn(C)c1F)C1CC1)c1ncc(Cl)cc1Cl [Compound No. 17-009, N-cyclopropyl-N-[2-(3,5-dichloropyridin-2-yl)-2-(methoxyimino)ethyl]-5-fluoro-1-methyl-3-trifluoromethyl-1H-pyrazole-4-carboxamide]
Sclerotinia sclerotiorum
  pest or weed control at 500 µg/mL: ≥ 70%
[2]
  pest or weed control at 500 µg/mL: ≥ 70%
other
  melting point: 95 to 97 °C
Botrytis cinerea [3]
  pest or weed control at 500 µg/mL: ≥ 70%

## CON=C(CN(SC(Cl)(Cl)Cl)C(=O)c1ccccc1C(F)(F)F)c1ncc(Cl)cc1Cl [4-015]
Botrytis cinerea [1]
  pest or weed control at 500 µg/mL: ≥ 70%
Sclerotinia sclerotiorum
  pest or weed control at 500 µg/mL: ≥ 70%
Botrytis cinerea [3]
  pest or weed control at 500 µg/mL: ≥ 70%

## CCO/N=C(/CNC(=O)c1ccccc1C(F)(F)F)c1ncc(Cl)cc1Cl [Compound No. 2-120, (Z)—N-[2-(3,5-dichloropyridin-2-yl)-2-(ethoxyimino)ethyl]-2-(trifluoromethyl)benzamide]
Meloidogyne incognita
  pest or weed control at 100 µg/mL: ≥ 50%
Botrytis cinerea [1]
  pest or weed control at 500 µg/mL: ≥ 70%
[2]
  pest or weed control at 500 µg/mL: ≥ 70%
other
  melting point: 84 to 86 °C
Botrytis cinerea [3]
  pest or weed control at 500 µg/mL: ≥ 70%
Puccinia recondita
  pest or weed control at 500 µg/mL: ≥ 70%

## CON=C(c1ncc(Cl)cc1Cl)C(C)NC(=O)c1ccccc1C(F)(F)F (centres unmarked) [Compound No. 2-115, N-[2-(3,5-dichloropyridin-2-yl)-2-methoxyimino-1-methylethyl]-2-(trifluoromethyl)benzamide]
Meloidogyne incognita
  pest or weed control at 100 µg/mL: ≥ 50%
Botrytis cinerea [1]
  pest or weed control at 500 µg/mL: ≥ 70%
Sclerotinia sclerotiorum
  pest or weed control at 500 µg/mL: ≥ 70%
[2]
  pest or weed control at 500 µg/mL: ≥ 70%
Botrytis cinerea [3]
  pest or weed control at 500 µg/mL: ≥ 70%
Puccinia recondita
  pest or weed control at 500 µg/mL: ≥ 70%

## CCO/N=C(\c1ncc(Cl)cc1Cl)[C@H](C)NC(=O)c1ccccc1C(F)(F)F [2-124, (S)—N-[2-(3,5-dichloropyridin-2-yl)-2-[(Z)-ethoxyimino]-1-methylethyl]-2-(trifluoromethyl)benzamide]
Botrytis cinerea [1]
  pest or weed control at 500 µg/mL: ≥ 70%
Sclerotinia sclerotiorum
  pest or weed control at 500 µg/mL: ≥ 70%
[2]
  pest or weed control at 500 µg/mL: ≥ 70%
Botrytis cinerea [3]
  pest or weed control at 500 µg/mL: ≥ 70%
Puccinia recondita
  pest or weed control at 500 µg/mL: ≥ 70%

## CO/N=C(/CNC(=O)c1ccccc1C(F)(F)F)c1ncc(Cl)cc1Cl [Compound No. 2-114, (Z)—N-[2-(3,5-dichloropyridin-2-yl)-2-(methoxyimino)ethyl]-2-(trifluoromethyl)benzamide]
Meloidogyne incognita
  pest or weed control at 100 µg/mL: ≥ 50%
Botrytis cinerea [4]
  pest or weed control at 100 ppm: ≥ 70%
Sclerotinia sclerotiorum
  pest or weed control at 500 µg/mL: ≥ 70%
Botrytis cinerea [5]
  pest or weed control at 100 ppm: ≥ 70%
other
  melting point: 88 to 89 °C
